Laboratory results published in US10538555B2, “Macrocyclic inhibitors of the PD-1/PD-L1 and CD80(B7-1)/PD-L1 protein/protein interactions” (BRISTOL-MYERS SQUIBB COMPANY, priority 2014, dated 2020).
Where a SMILES comes first, the peptide text is derived from it. Bridges are numbered along the chain shown (N, C = ends). [ ]: non-standard residue; d: D form. ξ: configuration not given here. Trp(1-CH2COOH) = N[C@@H](Cc1cn(CC(=O)O)c2ccccc12)C(=O)O; Phe(3,4,5-F3) = N[C@@H](Cc1cc(F)c(F)c(F)c1)C(=O)O; NMePhe(4-F) = CN[C@@H](Cc1ccc(F)cc1)C(=O)O; Phe(4-F) = N[C@@H](Cc1ccc(F)cc1)C(=O)O; d(cisHyp) = O=C(O)[C@H]1C[C@@H](O)CN1; Bta = N[C@@H](Cc1csc2ccccc12)C(=O)O; NMeIle(3ξ) = CCC(C)[C@H](NC)C(=O)O; Hyp = O=C(O)[C@@H]1C[C@@H](O)CN1; NMeF = CN[C@@H](Cc1ccccc1)C(=O)O; dHyp = O=C(O)[C@H]1C[C@H](O)CN1; Cha = N[C@@H](CC1CCCCC1)C(=O)O; NMeNle = CCCC[C@H](NC)C(=O)O; NMeM = CN[C@@H](CCSC)C(=O)O; Pip = O=C(O)[C@@H]1CCCCN1; dPip = O=C(O)[C@H]1CCCCN1; hSer = N[C@@H](CCO)C(=O)O; NMeA = CN[C@@H](C)C(=O)O; Orn = NCCC[C@H](N)C(=O)O; Dab = NCC[C@H](N)C(=O)O; Dap = NC[C@H](N)C(=O)O; ξC = NC(CS)C(=O)O; Sar = CNCC(=O)O

Molecular target: T1, Human PD-L1/PD-1 (Homo sapiens, UniProt Q9NZQ7)
T1 construct: TVMV protease cleavage site (C); made in house; host or cells: HEK293T cells
Assay: HTRF Human PD-L1/PD-1 binding assay (PD-1-Ig/PD-L1-His)
Details: PD-L1-His 10 nM, PD-1-Ig 20 nM; class symbol; read-out: HTRF Human PD-L1/PD-1 Binding Assay IC50 Range
Outline: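 HTRF read-out (665/620 nm ratio) after 30 min equilibration with Eu-cryptate anti-Ig mAb (1 nM) and APC anti-His mAb (20 nM). Peptides preincubated 15 min with PD-L1-His (10 nM), then PD-1-Ig (20 nM) added for 15 min.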

T1 sequence (Q9NZQ7 with tags, fused parts or gaps): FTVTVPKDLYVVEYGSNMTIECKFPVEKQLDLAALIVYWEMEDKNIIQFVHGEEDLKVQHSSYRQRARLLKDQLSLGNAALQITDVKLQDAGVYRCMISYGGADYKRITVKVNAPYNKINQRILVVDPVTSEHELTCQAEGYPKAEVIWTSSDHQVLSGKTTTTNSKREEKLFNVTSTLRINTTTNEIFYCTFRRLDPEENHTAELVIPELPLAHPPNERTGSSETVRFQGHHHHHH

Row | IC50 [nM] | Compound
1 | 1 to 9.9 | CCCC[C@H]1C(=O)N2CCC[C@@H]2C(=O)N[C@@H](CCN)C(=O)N[C@@H](C(C)C)C(=O)N(C)[C@@H](Cc2ccccc2)C(=O)N[C@@H](CCC(=O)O)C(=O)N2CCCC[C@@H]2C(=O)N[C@@H](Cc2c[nH]c3ccccc23)C(=O)N[C@@H](Cc2ccc(O)cc2)C(=O)N[C@@H](CC(C)C)C(=O)N[C@H](C(=O)NCC(N)=O)CSCC(=O)N[C@@H](Cc2cc(F)c(F)c(F)c2)C(=O)N(C)[C@@H](Cc2ccc(F)cc2)C(=O)N1C [Example 10577] ({CH2CO}-[Phe(3,4,5-F3)][NMePhe(4-F)][NMeNle][dP][Dab]V[NMeF]E[dPip]WYLCG-NH2; thioether N-13)
2 | 1 to 9.9 | CCCC[C@H]1C(=O)N(C)[C@@H](CCCC)C(=O)N[C@@H](CCC(=O)O)C(=O)N[C@H](C(=O)NCC(N)=O)CSCC(=O)N[C@@H](Cc2ccc(OC)cc2)C(=O)N(C)[C@@H](C)C(=O)N[C@@H](CC(=O)O)C(=O)N2CCC[C@H]2C(=O)N[C@@H](Cc2c[nH]cn2)C(=O)N[C@@H](CCCCN)C(=O)N2C[C@H](O)C[C@H]2C(=O)N[C@@H](Cc2c[nH]c3ccccc23)C(=O)N[C@@H](CCN)C(=O)N[C@@H](Cc2cn(CC(=O)O)c3ccccc23)C(=O)N1C [Example 7147] ({CH2CO}-Y(Me)[NMeA]DPHK[Hyp]W[Dab][Trp(1-CH2COOH)][NMeNle][NMeNle]ECG-NH2; thioether N-14)
3 | 1000 to 10000 | CCCC[C@H]1C(=O)N2CCC[C@@H]2C(=O)N[C@@H](CC(=O)O)C(=O)N[C@@H](C(C)C)C(=O)N(C)[C@@H](C(C)CC)C(=O)N[C@@H](CCC(N)=O)C(=O)N2CCC[C@@H]2C(=O)N[C@@H](Cc2c[nH]c3ccccc23)C(=O)N[C@@H](Cc2ccc(O)cc2)C(=O)N[C@@H](CCCN)C(=O)N[C@H](C(=O)NCC(N)=O)CSCC(=O)N[C@@H](Cc2ccc(F)cc2)C(=O)N(C)[C@@H](Cc2ccccc2)C(=O)N1C (stereo partly drawn) [Example 9262] ({CH2CO}-[Phe(4-F)][NMeF][NMeNle][dP]DV[NMeIle(3ξ)]Q[dP]WY[Orn]CG-NH2; thioether N-13)
4 | 1000 to 10000 | CCCC[C@H]1C(=O)N[C@@H](CC(N)=O)C(=O)N2CCC[C@H]2C(=O)N[C@@H](CO)C(=O)N[C@@H](CCO)C(=O)N2C[C@H](O)C[C@H]2C(=O)N[C@@H](Cc2c[nH]c3ccccc23)C(=O)N[C@@H](CCO)C(=O)N[C@@H](Cc2c[nH]c3ccccc23)C(=O)N(C)[C@@H](C)C(=O)N(C)[C@@H](C)C(=O)N[C@@H](CCC(=O)O)C(=O)NC(C(=O)NCC(N)=O)CSCC(=O)N[C@@H](Cc2ccc(O)cc2)C(=O)N1C (stereo partly drawn) [Example 10218] ({CH2CO}-Y[NMeNle]NPS[hSer][Hyp]W[hSer]W[NMeA][NMeA]E[ξC]G-NH2; thioether N-14)
5 | 1 to 9.9 | CCCC[C@H]1C(=O)N2C[C@H](O)C[C@@H]2C(=O)N[C@@H](CC(=O)O)C(=O)N[C@@H](C(C)C)C(=O)N(C)[C@@H](Cc2ccccc2)C(=O)N[C@@H](CCC(N)=O)C(=O)N2C[C@H](O)C[C@@H]2C(=O)N[C@@H](Cc2c[nH]c3ccccc23)C(=O)N[C@@H](Cc2ccc(O)cc2)C(=O)N[C@@H](CC(N)=O)C(=O)N[C@H](C(=O)NCC(N)=O)CSCC(=O)N[C@@H](Cc2cc(F)c(F)c(F)c2)C(=O)N(C)[C@@H](Cc2ccccc2)C(=O)N1C [Example 9360] ({CH2CO}-[Phe(3,4,5-F3)][NMeF][NMeNle][d(cisHyp)]DV[NMeF]Q[d(cisHyp)]WYNCG-NH2; thioether N-13)
6 | 1 to 9.9 | CCCC[C@H]1C(=O)N(C)[C@@H](CCCC)C(=O)N[C@@H](CC(C)C)C(=O)N[C@H](C(=O)NCC(N)=O)CSCC(=O)N[C@@H](Cc2ccc(O)cc2)C(=O)N2CCCC[C@H]2C(=O)N[C@@H](CC(=O)O)C(=O)N2CCC[C@H]2C(=O)N[C@@H](Cc2cnc[nH]2)C(=O)N[C@@H](CCC(N)=O)C(=O)N2C[C@H](O)C[C@H]2C(=O)N[C@@H](Cc2c[nH]c3ccccc23)C(=O)N[C@@H](CO)C(=O)N[C@@H](Cc2csc3ccccc23)C(=O)N1C [Example 1511] ({CH2CO}-Y[Pip]DPHQ[Hyp]WS[Bta][NMeNle][NMeNle]LCG-NH2; thioether N-14)
7 | 1 to 9.9 | CCCC[C@H]1C(=O)N(C)[C@@H](CCCC)C(=O)N[C@@H](CCC(=O)O)C(=O)N[C@H](C(=O)NCC(N)=O)CSCC(=O)N[C@@H](Cc2ccc(O)cc2)C(=O)N(C)[C@@H](C)C(=O)N[C@@H](CC(N)=O)C(=O)N2CCC[C@H]2C(=O)N[C@@H](CN)C(=O)N[C@@H](CCC(=O)O)C(=O)N2C[C@H](O)C[C@H]2C(=O)N[C@@H](Cc2c[nH]c3ccccc23)C(=O)N[C@@H](CO)C(=O)N[C@@H](Cc2c[nH]c3ccccc23)C(=O)N1C [Example 5242] ({CH2CO}-Y[NMeA]NP[Dap]E[Hyp]WSW[NMeNle][NMeNle]ECG-NH2; thioether N-14)
8 | 1 to 9.9 | CCCC[C@H]1C(=O)N2CCC[C@@H]2C(=O)N[C@@H](CC(=O)O)C(=O)N[C@@H](C(C)C)C(=O)N(C)[C@@H](Cc2ccccc2)C(=O)N[C@@H](CCC(=O)O)C(=O)N2CCCC[C@@H]2C(=O)N[C@@H](Cc2c[nH]c3ccccc23)C(=O)N[C@@H](Cc2ccc(O)cc2)C(=O)N[C@@H](CO)C(=O)N[C@H](C(=O)NCC(N)=O)CSCC(=O)N[C@@H](Cc2cc(F)c(F)c(F)c2)C(=O)N(C)[C@@H](Cc2ccc(F)cc2)C(=O)N1C [Example 10565] ({CH2CO}-[Phe(3,4,5-F3)][NMePhe(4-F)][NMeNle][dP]DV[NMeF]E[dPip]WYSCG-NH2; thioether N-13)
9 | 1 to 9.9 | CCCC[C@H]1C(=O)N2CCC[C@@H]2C(=O)N[C@@H](CC(=O)O)C(=O)N[C@@H](C(C)C)C(=O)N(C)[C@@H](Cc2ccccc2)C(=O)N[C@@H](CCC(=O)O)C(=O)N2CCCC[C@@H]2C(=O)N[C@@H](Cc2c[nH]c3ccccc23)C(=O)N[C@@H](Cc2ccc(O)cc2)C(=O)N[C@@H](CN)C(=O)N[C@H](C(=O)NCC(N)=O)CSCC(=O)N[C@@H](Cc2cc(F)c(F)c(F)c2)C(=O)N(C)[C@@H](Cc2ccc(F)cc2)C(=O)N1C [Example 10569] ({CH2CO}-[Phe(3,4,5-F3)][NMePhe(4-F)][NMeNle][dP]DV[NMeF]E[dPip]WY[Dap]CG-NH2; thioether N-13)
10 | 1 to 9.9 | CCCC[C@H]1C(=O)N(C)[C@@H](CCCC)C(=O)N[C@@H](CC(C)C)C(=O)N[C@H](C(=O)NCC(N)=O)CSCC(=O)N[C@@H](Cc2ccc(O)cc2)C(=O)N(C)[C@@H](C)C(=O)N[C@@H](CC(N)=O)C(=O)N2CCC[C@H]2C(=O)N[C@@H](CN)C(=O)N[C@@H](CCC(N)=O)C(=O)N2C[C@H](O)C[C@H]2C(=O)N[C@@H](Cc2c[nH]c3ccccc23)C(=O)N[C@@H](CCN)C(=O)N[C@@H](Cc2cn(CC(=O)O)c3ccccc23)C(=O)N1C [Example 5259] ({CH2CO}-Y[NMeA]NP[Dap]Q[Hyp]W[Dab][Trp(1-CH2COOH)][NMeNle][NMeNle]LCG-NH2; thioether N-14)
11 | 10 to 99.9 | CCCC[C@H]1C(=O)N2C[C@@H](O)C[C@@H]2C(=O)N[C@@H](CC(=O)O)C(=O)N[C@@H](C)C(=O)N(C)[C@@H](Cc2ccccc2)C(=O)N[C@@H](Cc2ccc(O)cc2)C(=O)N(C)CC(=O)N[C@@H](Cc2c[nH]c3ccccc23)C(=O)N[C@@H](Cc2ccc(O)cc2)C(=O)N[C@@H](CC(C)C)C(=O)N[C@H](C(=O)NCC(N)=O)CSCC(=O)N[C@@H](Cc2ccccc2)C(=O)N(C)[C@@H](Cc2ccccc2)C(=O)N1C [Example 10086] ({CH2CO}-F[NMeF][NMeNle][dHyp]DA[NMeF]Y[Sar]WYLCG-NH2; thioether N-13)
12 | 100 to 990 | CCCC[C@H]1C(=O)N(C)CC(=O)N[C@@H](CC(=O)O)C(=O)N[C@@H](C(C)C)C(=O)N(C)[C@@H](Cc2ccccc2)C(=O)N[C@@H](Cc2ccc(O)cc2)C(=O)N(C)CC(=O)N[C@@H](Cc2c[nH]c3ccccc23)C(=O)N[C@@H](Cc2ccc(O)cc2)C(=O)N[C@@H](CC(C)C)C(=O)N[C@H](C(=O)NCC(N)=O)CSCC(=O)N[C@@H](CC2CCCCC2)C(=O)N(C)[C@@H](Cc2ccccc2)C(=O)N1C [Example 3238] ({CH2CO}-[Cha][NMeF][NMeNle][Sar]DV[NMeF]Y[Sar]WYLCG-NH2; thioether N-13)
13 | 10 to 99.9 | CCCC[C@H]1C(=O)N(C)[C@@H](CCCC)C(=O)N[C@@H](CCCN)C(=O)N[C@H](C(=O)NCC(N)=O)CSCC(=O)N[C@@H](Cc2ccc(OC)cc2)C(=O)N(C)[C@@H](C)C(=O)N[C@@H](CCN)C(=O)N2CCC[C@H]2C(=O)N[C@@H](CN)C(=O)N[C@@H](CCCCN)C(=O)N2C[C@H](O)C[C@H]2C(=O)N[C@@H](Cc2c[nH]c3ccccc23)C(=O)N[C@@H](CCN)C(=O)N[C@@H](Cc2c[nH]c3ccccc23)C(=O)N1C [Example 7103] ({CH2CO}-Y(Me)[NMeA][Dab]P[Dap]K[Hyp]W[Dab]W[NMeNle][NMeNle][Orn]CG-NH2; thioether N-14)
14 | 1 to 9.9 | CCCC[C@H]1C(=O)N(C)[C@@H](CCCC)C(=O)N[C@@H](CCN)C(=O)NC(C(=O)NCC(N)=O)CSCC(=O)N[C@@H](Cc2ccc(O)cc2)C(=O)N(C)[C@@H](C)C(=O)N[C@@H](CC(N)=O)C(=O)N2CCC[C@H]2C(=O)N[C@@H](CC(N)=O)C(=O)N[C@@H](CC(C)C)C(=O)N2CCC[C@H]2C(=O)N[C@@H](Cc2c[nH]c3ccccc23)C(=O)N[C@@H](CO)C(=O)N[C@@H](Cc2c[nH]c3ccccc23)C(=O)N1C (stereo partly drawn) [Example 9162] ({CH2CO}-Y[NMeA]NPNLPWSW[NMeNle][NMeNle][Dab][ξC]G-NH2; thioether N-14)

Same assay, conditions: PD-L1-His 10 nM, PD-1-Ig 20 nM; read-out: HTRF Human PD-L1/PD-1 Binding Assay IC50

Row | IC50 [nM] | Compound
15 | 1000 | CSCC[C@H]1C(=O)N2C[C@H](O)C[C@H]2C(=O)N[C@@H](CC(N)=O)C(=O)N[C@@H](C(C)C)C(=O)N(C)[C@@H](Cc2ccccc2)C(=O)N[C@@H](Cc2ccc(O)cc2)C(=O)N2C[C@H](O)C[C@H]2C(=O)N[C@@H](Cc2c[nH]c3ccccc23)C(=O)N[C@@H](Cc2ccc(O)cc2)C(=O)N[C@@H](CC(C)C)C(=O)N[C@H](C(=O)NCC(N)=O)CSCC(=O)N[C@@H](Cc2ccccc2)C(=O)N(C)[C@@H](Cc2ccccc2)C(=O)N1C [Example 9167] ({CH2CO}-F[NMeF][NMeM][Hyp]NV[NMeF]Y[Hyp]WYLCG-NH2; thioether N-13)
